Literature values as cited in patent US6331653A, “Process for producing 3,4-dihydroxy-3-cyclobutene-1,2-dione” (priority 1997, dated 2001).
Read-outs that look alike come from different tables or passages of the source.

[1] = in an aqueous solution at 25° C., amine compound

pKa value [1]	SMILES	pKa value (water)
10.5	CN1CCCC1 [N-methylpyrrolidine]	–
–	CCCCN(CCCC)CCCC [tributylamine]	9.9
–	CN(C)c1ccccc1 [N,N-dimethylaniline]	5.2
–	CCN(CC)c1ccccc1 [N,N-diethylaniline]	6.6
5.9	Cc1ccccn1 [α-picoline]	–
10.1	CN1CCCCC1 [N-methylpiperidine]	–

SMILES	pKa value [1]	pKa value (water)
c1ccc2ncccc2c1 [Quinoline]	4.8	–
